Experimental data reported in US20170304336A1, “COMBINATION” (priority 2014, published 2017).
Where “and” joins values, the source holds several entries; their conditions need not be identical. Identical values can stand only once.

Assays:
[1] = Stability of statin/glycyrrhizic acid molecular complexes by content of glycyrrhizic acid; assay type: physicochemical; conditions: interval between testing points 7 months; European Pharmacopoeia 7.0 methodology
Protocol: Stability of these complexes was determined on the basis of quantitative content of glycyrrhizic acid (in percentage form). The interval between the testing points was 7 months. The testing methodology was taken from European Pharmacopoeia 7.0. […] This decline is related both to the conditions of synthesis (maximum decline observed for liquid-phase synthesis) and to the properties of the active ingredient itself.

[2] = Mass coefficients of organs (pancreas, liver, kidneys) of rats; assay type: in vivo, male rats of Wistar line; conditions: M ± m; for weight coefficient, Kidneys / weight coefficient, Liver: in %
Protocol: To calculate mass coefficients the pancreas, liver and kidneys of the animals were extracted. The organs were weighed and the mass coefficients were calculated by the following formula:
Mass coefficient=(organ weight/animal body weight)×100%

[3] = tested on: experimental rat hypercholesterolemia model; assay: Lipid spectrum of blood in experimental rat hypercholesterolemia model; assay type: in vivo, male rats of Wistar line
Protocol: The animals used were male rats of Wistar line. […] The proposed model using rats as the experimental animals is a reproducible standard model for evaluation of hypocholesterolemic effect.
(§1) Evaluation of hypocholesterolemic efficacy and safety of pharmaceutical combination was performed in vivo in experimental rat hypercholesterolemia model.
(§2) For 90 days the studied animals received hypercholesterol diet for pathology induction. The diet included Cholesterol+Cholic acid+Overheated fats (deep fat).
For 90 days the animals received the said ration ad libitum (30 g feed per animal). Development of hypercholesterolemia in animals was evaluated based on changes in lipid spectrum parameters on Day 30 of the study.
(§3) Drugs were introduced intragastrically with an esophageal bougie daily on Day 31-90 of the study at the same time of day.
Biochemical parameters and activity of blood serum enzymes (total cholesterol (CHS), LDL-CHS, HDL-CHS, triglycerides.
1.0-1.84 ml blood samples for the study of biochemical parameters were taken from tail vein of rats. Blood samples were taken from the animals after 14-15-hour's fasting at same time of day (9.00-11.00). For biochemical parameters tests a Biochemical Analyzer A-25 (Biosystems, Spain) was used. […]

[4] = tested on: experimental rat hypercholesterolemia model; assay: Biochemical blood analysis (drug toxicity parameters) in rat hypercholesterolemia model; assay type: in vivo, male rats of Wistar line
Protocol: as §1, §2, §3
Biochemical parameters and activity of serum enzymes (aspartate- and alanine aminotransferase, creatine phosphokinase, urea, serum amylase, total bilirubin, direct bilirubin, indirect bilirubin, serum glucose, cations K^+, Na^+).
1.0-1.84 ml blood samples for the study of biochemical parameters were taken from tail vein of rats. Blood samples were taken from the animals after 14-15-hour's fasting at same time of day (9.00-11.00). For biochemical parameters tests a Biochemical Analyzer A-25 (Biosystems, Spain) was used.
Vol. 4. pp. 1794-1798; Pearlman F C and Lee R T Y. Clin Chem 1974, 20, 447-453; Zoppi F et al, Peracino A., Fenili D., Marcovina S. and Ramella C. Giorn It Chim Cl. […] C. et al Clin Chem. 1974. Vol. 20. pp. 470-475; and in Meiattini F., et al, Clin Chem. 1978. Vol. 24. pp. 2161-2165 (total cholesterol); Warnick G R et al. Clin Chem 2001, 47, 1579-96 (HDL/LDL); Bucolo G and David H. Clin Chem. 1973.-Vol. 19. pp. 476-482; and in Fossati P. and, Prencipe L., Clin Chem. 1982. Vol. 28. pp. 2077-2080 (triglycerides); Trinder P. Ann Clin Biochem. 1969. Vol. 6. pp. 24-27).

[5] = Dynamics of body weight of rabbits (Schemes A and B); assay type: in vivo, male rabbits of Californian breed; conditions: for Body weight: Scheme A, M ± SEM
Text: The animals used in this experiment were involved reproductive male rabbits of Californian breed. 144 rabbits were used. The weight of the animals at the beginning of the trial ranged from 2.5 to 3 kg; the animals were 8 weeks old. Before the study the laboratory animals were contained for 27 and for 37 days in the separate coops for adaptation. During this period, clinical condition of animals was controlled every day by visual inspection. The criteria of the inclusion of animals in the experiment were health and body weight.
The introduction of drugs under two schemes was used to determine the mechanism of action of the studied drugs and the impact on the different stages of atherosclerosis.
Cholesterol administered daily in an oil solution at 0.3 g/kg of animal body weight, one time, 4 hours after drug administration. Cholesterol was dissolved in hot sunflower oil and administered to the animals through noninvasive probe into the stomach. The duration of administration amounted cholesterol from 1 to 90 days in subgroup A and 1 to 120 days in subgroup B. 2. After 30 days from the initiation of administration of cholesterol vitamin D3 (cholecalciferol) in a dose of 0.256 ml/kg was added to the diet of animals to enhance aortic lipidosis. Cholecalciferol was administered intragastrically via a probe from 31 till 60 days (Scheme A and B). […] In order to gain atherosclerotic lesions in aorta and atherosclerosis induction time reduction the animals were administered a dose of epinephrineequal to 0.04 mg/kg intravenously since 31 till 60 every five days (Scheme A and B).
Animal body weight was measured in accordance with standard procedures prior to the study, then—weekly (for calculating the volume of administration of the test compound and the reference drug) and immediately before euthanasia (on days 60 and 120)—to calculate the weight gain.
The administration was carried out intragastrically in accordance with standard procedures using atraumatic probe according to two treatment regimens every day at the same time.

[6] = Mass coefficients of liver and pancreas of rabbits; assay type: in vivo, male rabbits of Californian breed; conditions: for pancreatic mass coefficients relative to the control group: rosuvastatin 40 mg, AGA 100 mg
[7] = AV + GA 10 + 90 mg, AV 20 mg, GA 90 mg
[8] = FV + GA 80 + 90 mg, FV 80 mg, GA 90 mg
[9] = Day 30 of treatment (Day 60 of study), dose 90 mg
[10] = Day 60 of treatment (Day 90 of study), dose 90 mg
[11] = blood, Day 60 of the treatment (Day 90 of the study), AV + GA 10 + 90 mg, AV 10 mg, GA 90 mg
[12] = blood, Day 60 of the treatment (Day 90 of the study), FV + GA 80 + 90 mg, FV 80 mg, GA 90 mg
[13] = RV + AGA 10 + 108 mg, RV 10 mg, AGA 108 mg
[14] = Day 30 of treatment (Day 60 of study), dose 10 mg
[15] = Day 30 of treatment (Day 60 of study), dose 20 mg
[16] = Day 60 of treatment (Day 90 of study), dose 10 mg
[17] = Day 60 of treatment (Day 90 of study), dose 20 mg
[18] = blood, Day 60 of the treatment (Day 90 of the study), RV + AGA 10 + 108 mg, RV 10 mg, AGA 108 mg

In the case of `CC1(C)[C@@H](O[C@H]2O[C@H](C(=O)O)[C@@H](O)[C@H](O)[C@H]2O[C@@H]2O[C@H](C(=O)O)[C@@H](O)[C@H](O)[C@H]2O)CC[C@]2(C)[C@H]3C(=O)C=C4[C@@H]5C[C@@](C)(C(=O)O)CC[C@]5(C)CC[C@@]4(C)[C@]3(C)CC[C@@H]12` [GA, (3β,18α)-30-hydroxy-11,30-dioxoolean-12-en-3-yl 2-O-β-D-glucopyranuronosyl-β-D-glucopyranosiduronic acid], the “stability with regard to time (content of glycyrrhizic acid)” value [1] is reported as “unstable”, the “weight coefficient, Pancreas” value [2, 7] is reported as 0.20 ± 0.01^2 and the “weight coefficient, Kidneys” value [2, 7] is reported as 0.80 ± 0.01. For the same molecule, the “weight coefficient, Liver” value [2, 7] was 4.41 ± 0.09, the “weight coefficient, Pancreas” value [2, 8] was 0.23 ± 0.01^2 and the “weight coefficient, Kidneys” value [2, 8] was 0.80 ± 0.03. For the same molecule, the “weight coefficient, Liver” value [2, 8] was 4.42 ± 0.09, the “HDL CHS” value [3, 9] was 0.63 ± 0.04 mmol/L and the “LDL CHS” value [3, 9] was 4.00 ± 0.3 mmol/L. For the same molecule, the TG [3, 9] was 1.6 ± 0.10 mmol/L, the “Total CHS” value [3, 9] was 5.2 ± 0.5 mmol/L and the “HDL CHS” value [3, 10] was 0.73 ± 0.04 mmol/L. For the same molecule, the “LDL CHS” value [3, 10] was 3.90 ± 0.3 mmol/L, the TG [3, 10] was 1.6 ± 0.10 mmol/L and the “Total CHS” value [3, 10] was 4.5 ± 0.5 mmol/L. The ALT [4, 9] was 100 U/l, the AST [4, 9] was 125 U/l and 132 U/l and the Amylase [4, 9] was 618 U/l. The Bilirubin direct [4, 9] was 2.2 mg/dL, the Bilirubin indirect [4, 9] was 1.4 mg/dL and the Bilirubin total [4, 9] was 4.5 mg/dL. It also gave a CPK [4, 9] of 320 U/l, a Glucose [4, 9] of 111 mg/dL and a Potassium [4, 9] of 2.2 mM. For the same molecule, the Sodium [4, 9] was 135 mmol, the Urea [4, 9] was 5.7 mmol/L and the ALT [4, 11] was 103 U/l. The AST [4, 11] was 115 U/l, the Amylase [4, 11] was 600 U/l and the Bilirubin direct [4, 11] was 2.2 mg/dL. For the same molecule, the Bilirubin indirect [4, 11] was 1.8 mg/dL, the Bilirubin total [4, 11] was 4.3 mg/dL and the CPK [4, 11] was 233 U/l. The Glucose [4, 11] was 116 mg/dL, the Potassium [4, 11] was 3.1 mM and the Sodium [4, 11] was 123 mmol. For the same molecule, the Urea [4, 11] was 5.0 mmol/L, the ALT [4, 12] was 103 U/l and the AST [4, 12] was 121 U/l. The Amylase [4, 12] was 600 U/l, the Bilirubin direct [4, 12] was 2.2 mg/dL and the Bilirubin indirect [4, 12] was 1.8 mg/dL. The Bilirubin total [4, 12] was 4.3 mg/dL, the CPK [4, 12] was 233 U/l and the Glucose [4, 12] was 116 mg/dL. The Potassium [4, 12] was 3.1 mM, the Sodium [4, 12] was 123 mmol and the Urea [4, 12] was 5.0 mmol/L.
`CC(C)c1nc(N(C)S(C)(=O)=O)nc(-c2ccc(F)cc2)c1/C=C/[C@@H](O)C[C@@H](O)CC(=O)O` [RV, (3R,5S,6E)-7-[4-(4-fluorophenyl)-2-(N-methylmethanesulfonamido)-6-(propan-2-yl)pyrimidin-5-yl]-3,5-dihydroxyhept-6-enoic acid] showed a Body weight ([5]; Day 0 (Before the study), dose group 20 mg) of 2874 ± 165 g, a Body weight ([5]; Day 0 (Before the study), dose group 40 mg) of 2787 ± 141 g and a Body weight ([5]; Day 28 (in the setting of pathology without treatment), dose group 20 mg) of 3350 ± 157 g. For the same molecule, the Body weight ([5]; Day 28 (in the setting of pathology without treatment), dose group 40 mg) was 3428 ± 146 g, the Body weight ([5]; Day 90 (in the setting of pathology with treatment), dose 20 mg) was 4340 ± 53 g and the Body weight ([5]; Day 90 (in the setting of pathology with treatment), dose 40 mg) was 4348 ± 66 g. For the same molecule, the “Body weight, M ± SEM, Day 120 (in the setting of pathology with treatment)” value ([5]; Scheme B, dose 20 mg) was 4699 ± 131^1 g, the “Body weight, M ± SEM, Day 0 (Before the study)” value ([5]; Scheme B, dose 20 mg, baseline) was 2665 ± 85 g and the “Body weight, M ± SEM, Day 56 (in the setting of pathology without treatment)” value ([5]; Scheme B, dose 20 mg, before treatment) was 3479 ± 106 g. The “Mass ratios, M ± SEM, Liver” value ([6]; Scheme A, dose 20 mg) was 3.8 ± 0.2, the “Mass ratios, M ± SEM, Pancreas” value ([6]; Scheme A, dose 20 mg) was 0.07 ± 0.006 and the “Mass ratios, M ± SEM, Liver” value ([6]; Scheme A, dose 40 mg) was 4.0 ± 0.1. For the same molecule, the “Mass ratios, M ± SEM, Pancreas” value ([6]; Scheme A, dose 40 mg) was 0.09 ± 0.004, the “pancreatic mass coefficients relative to the control group” value ([6]; Scheme A) was “significant increase” and the “Mass ratios, M ± SEM, Liver” value ([6]; Scheme B, dose 20 mg) was 3.8 ± 0.2. For the same molecule, the “Mass ratios, M ± SEM, Pancreas” value ([6]; Scheme B, dose 20 mg) was 0.09 ± 0.004^12, the “pancreatic mass coefficients relative to the control group” value ([6]; Scheme B) was “statistically significant increase” and the “weight coefficient, Pancreas” value [2, 13] was 0.35 ± 0.04. The “weight coefficient, Kidneys” value [2, 13] was 0.75 ± 0.03, the “weight coefficient, Liver” value [2, 13] was 4.42 ± 0.11 and the “HDL CHS” value [3, 14] was 0.81 ± 0.05 mmol/L. For the same molecule, the “LDL CHS” value [3, 14] was 3.23 ± 0.21 mmol/L, the TG [3, 14] was 1.21 ± 0.10 mmol/L and the “Total CHS” value [3, 14] was 4.0 ± 0.2 mmol/L. The “HDL CHS” value [3, 15] was 0.9 ± 0.03 mmol/L, the “LDL CHS” value [3, 15] was 3.00 ± 0.10 mmol/L and the TG [3, 15] was 1.27 ± 0.03 mmol/L. For the same molecule, the “Total CHS” value [3, 15] was 3.6 ± 0.1 mmol/L, the “HDL CHS” value [3, 16] was 0.81 ± 0.05 mmol/L and the “LDL CHS” value [3, 16] was 2.90 ± 0.21 mmol/L. The TG [3, 16] was 1.21 ± 0.10 mmol/L, the “Total CHS” value [3, 16] was 3.7 ± 0.2 mmol/L and the “HDL CHS” value [3, 17] was 0.91 ± 0.03 mmol/L. For the same molecule, the “LDL CHS” value [3, 17] was 2.72 ± 0.20 mmol/L, the TG [3, 17] was 1.29 ± 0.03 mmol/L and the “Total CHS” value [3, 17] was 3.3 ± 0.1 mmol/L. The ALT [4, 14] was 179 U/l, the AST [4, 14] was 182 U/l and the Amylase [4, 14] was 641 U/l. It also gave a Bilirubin direct [4, 14] of 2.7 mg/dL, a Bilirubin indirect [4, 14] of 2.1 mg/dL and a Bilirubin total [4, 14] of 4.6 mg/dL. The CPK [4, 14] was 702 U/l, the Glucose [4, 14] was 158 mg/dL and the Potassium [4, 14] was 4.3 mM. For the same molecule, the Sodium [4, 14] was 128 mmol, the Urea [4, 14] was 7.2 mmol/L and the ALT [4, 18] was 139 U/l. For the same molecule, the AST [4, 18] was 190 U/l, the Amylase [4, 18] was 584 U/l and the Bilirubin direct [4, 18] was 2.9 mg/dL. For the same molecule, the Bilirubin indirect [4, 18] was 1.7 mg/dL, the Bilirubin total [4, 18] was 4.8 mg/dL and the CPK [4, 18] was 597 U/l. For the same molecule, the Glucose [4, 18] was 130 mg/dL, the Potassium [4, 18] was 2.2 mM and the Sodium [4, 18] was 130 mmol. It also gave a Urea [4, 18] of 6.4 mmol/L.
